Species on record: Rattus norvegicus
Assay: Open TG-GATES - Regimen: Daily Repeat
Assay type: toxicity, organism-based, Sprague-Dawley
Parameters: regimen Daily Repeat, gender Male, age 6 weeks
Details: in vivo, po, route gavage; for TP / gamma-GTP / ALP / ALT / AST / BUN / CRE / Cl / DBIL / GLC / IP / K / LDH / Na / PL / RALB / TBIL / TC / TG / Ca: tissue Plasma; for APTT / Bas / Eos / Fbg / Hb / Ht / Lym / MCH / MCHC / MCV / Mono / Neu / PT / Plat / RBC / Ret / WBC: tissue Blood; for KIDNEY_L / KIDNEY_R / KIDNEY_TOTAL: tissue Kidney; for LIVER: tissue Liver
[1] = 300 mg/kg, […], dose level Middle, time 28 day
[2] = 1000 mg/kg, 72 h, dose level High, time 3 day
[3] = 1000 mg/kg, […], dose level High, time 7 day
[4] = 1000 mg/kg, […], dose level High, time 14 day
[5] = 1000 mg/kg, […], dose level High, time 28 day

COC(=O)C1=C(C)NC(C)=C(C(=O)OC)C1c1ccccc1[N+](=O)[O-] [NIFEDIPINE]
TP [1]: 6.1 g/dL | gamma-GTP [1]: 1 IU/L | TERMINAL_BW [2]: 202 g | APTT [2]: 21.7 s | Bas [2]: 0% | Eos [2]: 0.8% | Fbg [2]: 252.6 mg/dL | Hb [2]: 14 g/dL | Ht [2]: 42.2% | Lym [2]: 76.8% | MCH [2]: 20.5 pg | MCHC [2]: 33.2% | MCV [2]: 61.8 fL | Mono [2]: 3.2% | Neu [2]: 18.2% | PT [2]: 14.1 s | Plat [2]: 134.4 x10_4/uL | RBC [2]: 683.2 x10_4/ul | Ret [2]: 7.3% | WBC [2]: 97.2 x10_2/uL | KIDNEY_L [2]: 0.9 g | KIDNEY_R [2]: 0.9 g | KIDNEY_TOTAL [2]: 1.7 g | ALP [2]: 1290.2 IU/L | ALT [2]: 41.6 IU/L | AST [2]: 67.6 IU/L | BUN [2]: 14 mg/dL | CRE [2]: 0.2 mg/dL | Cl [2]: 107.8 meq/L | DBIL [2]: 0.016 mg/dL | GLC [2]: 153 mg/dL | IP [2]: 6.1 mg/dL | K [2]: 4.1 meq/L | LDH [2]: 69.6 IU/L | Na [2]: 143.6 meq/L | PL [2]: 123 mg/dL | RALB [2]: 2.5 g/dL | TBIL [2]: 0.032 mg/dL | TC [2]: 67.2 mg/dL | TG [2]: 54 mg/dL | TP [2]: 5.3 g/dL | gamma-GTP [2]: 0.8 IU/L | TERMINAL_BW [3]: 238.1 g | TERMINAL_BW [4]: 309.6 g | TERMINAL_BW [5]: 388.3 g | APTT [3]: 16.8 s | Bas [3]: 0.4% | Eos [3]: 0.8% | Fbg [3]: 253.4 mg/dL | Hb [3]: 14.1 g/dL | Ht [3]: 42.6% | Lym [3]: 71.4% | MCH [3]: 20.2 pg | MCHC [3]: 33.1% | MCV [3]: 61 fL | Mono [3]: 2.8% | Neu [3]: 23.8% | PT [3]: 14.2 s | Plat [3]: 142.6 x10_4/uL | RBC [3]: 701.2 x10_4/ul | Ret [3]: 5.9% | WBC [3]: 121.8 x10_2/uL | APTT [4]: 21.1 s | Bas [4]: 0.4% | Eos [4]: 0.6% | Fbg [4]: 267.4 mg/dL | Hb [4]: 14.3 g/dL | Ht [4]: 42.8% | Lym [4]: 73.8% | MCH [4]: 20.6 pg | MCHC [4]: 33.5% | MCV [4]: 61.4 fL | Mono [4]: 3% | Neu [4]: 21.4% | PT [4]: 13.8 s | Plat [4]: 120.3 x10_4/uL | RBC [4]: 697.2 x10_4/ul | Ret [4]: 5.8% | WBC [4]: 117.1 x10_2/uL | APTT [5]: 21.7 s | Bas [5]: 0% | Eos [5]: 0.8% | Fbg [5]: 252.6 mg/dL | Hb [5]: 14 g/dL | Ht [5]: 42.2% | Lym [5]: 76.8% | MCH [5]: 20.5 pg | MCHC [5]: 33.2% | MCV [5]: 61.8 fL | Mono [5]: 3.2% | Neu [5]: 18.2% | PT [5]: 14.1 s | Plat [5]: 134.4 x10_4/uL | RBC [5]: 683.2 x10_4/ul | Ret [5]: 7.3% | WBC [5]: 97.2 x10_2/uL | KIDNEY_L [3]: 1 g | KIDNEY_R [3]: 0.9 g | KIDNEY_TOTAL [3]: 1.9 g | KIDNEY_L [4]: 1.2 g | KIDNEY_R [4]: 1.2 g | KIDNEY_TOTAL [4]: 2.4 g | KIDNEY_L [5]: 1.4 g | KIDNEY_R [5]: 1.3 g | KIDNEY_TOTAL [5]: 2.7 g | LIVER [3]: 12.1 g | LIVER [4]: 15.5 g | LIVER [5]: 17.5 g | ALP [3]: 1072.4 IU/L | ALT [3]: 40.4 IU/L | AST [3]: 68.2 IU/L | BUN [3]: 15 mg/dL | CRE [3]: 0.2 mg/dL | Cl [3]: 105.8 meq/L | DBIL [3]: 0.016 mg/dL | GLC [3]: 155.6 mg/dL | IP [3]: 6.4 mg/dL | K [3]: 3.9 meq/L | LDH [3]: 86 IU/L | Na [3]: 144.2 meq/L | PL [3]: 129 mg/dL | RALB [3]: 2.7 g/dL | TBIL [3]: 0.028 mg/dL | TC [3]: 68.8 mg/dL | TG [3]: 70.6 mg/dL | TP [3]: 5.7 g/dL | gamma-GTP [3]: 1 IU/L | ALP [4]: 1620.8 IU/L | ALT [4]: 41.6 IU/L | AST [4]: 66.6 IU/L | BUN [4]: 18.6 mg/dL | CRE [4]: 0.2 mg/dL | Ca [4]: 11 mg/dL | Cl [4]: 104.2 meq/L | DBIL [4]: 0.012 mg/dL | GLC [4]: 172.8 mg/dL | IP [4]: 7.3 mg/dL | K [4]: 4 meq/L | LDH [4]: 51 IU/L | Na [4]: 143.4 meq/L | PL [4]: 161 mg/dL | RALB [4]: 2.8 g/dL | TBIL [4]: 0.018 mg/dL | TC [4]: 84.2 mg/dL | TG [4]: 101.8 mg/dL | TP [4]: 5.9 g/dL | gamma-GTP [4]: 1 IU/L | ALP [5]: 975.4 IU/L | ALT [5]: 40.2 IU/L | AST [5]: 64.4 IU/L | BUN [5]: 18.2 mg/dL | CRE [5]: 0.3 mg/dL | Ca [5]: 10.3 mg/dL | Cl [5]: 106.6 meq/L | DBIL [5]: 0.012 mg/dL | GLC [5]: 162.8 mg/dL | IP [5]: 5.8 mg/dL | K [5]: 3.7 meq/L | LDH [5]: 62.8 IU/L | Na [5]: 144.4 meq/L | PL [5]: 144 mg/dL | RALB [5]: 2.7 g/dL | TBIL [5]: 0.028 mg/dL | TC [5]: 73.6 mg/dL | TG [5]: 115.4 mg/dL | TP [5]: 6 g/dL | gamma-GTP [5]: 1 IU/L

Reference: ChEMBL document CHEMBL3885861, “Open TG-GATES”
